Data taken from patent US20220395575A1, “COMBINATION THERAPY WITH PROTEIN KINASE B ACTIVATION INHIBITOR TO TREAT CANCER” (H. LEE MOFFITT CANCER CENTER AND RESEARCH INSTITUTE, INC., priority 2019, published 2022).

Key:
Assay type in all cases: cell-based
Conditions in all cases: in combination with Akt activation inhibitor TCN-P
[1] = tested on: HL60 human leukemic cells; experiment: viability of HL60 human leukemic cells, combination with TCN-P
[2] = tested on: THP1 human leukemic cells; experiment: viability of THP1 human leukemic cells, combination with TCN-P
[3] = tested on: U937 human leukemic cells; experiment: viability of U937 human leukemic cells, combination with TCN-P

Measured: synergy with TCN-P to inhibit viability

C#Cc1cccc(Nc2ncnc3cc(OC)c(OCCCCCCC(=O)NO)cc23)c1 [CUDC-101]
synergizes with TCN-P: all assays above

Cc1cnc(NC(=O)Nc2cc(Br)c(C)cc2OC[C@@H]2CNCCO2)cn1 [LY2603618, rabusertib]
synergizes with TCN-P: all assays above
